Reference: the supplement of paper PMC10307832

Compound: CNC(=O)c1cc(Oc2ccc(NC(=O)Nc3ccc(Cl)c(C(F)(F)F)c3)cc2)ccn1 [Sorafenib] + COc1cc2c(Oc3ccc(NC(=O)C4(C(=O)Nc5ccc(F)cc5)CC4)cc3F)ccnc2cc1OCCCN1CCOCC1 [Foretinib] (partner 0.25 µM)
Assay: relative viability (nuclei count vs DMSO), 5 days (fraction); higher = more cells survive
Outline: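 Five library-drug doses in √10 steps were combined with a fixed anchor-drug dose, or a single drug was given alone, by pin tool to lung cancer cell lines in 1536-well plates the day after seeding. Nuclei were stained and counted after 5 days. Relative viability is the nuclei count in treated wells over that in vehicle wells, taken as the median of duplicate plates.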

Row | Cell Line | relative viability (first compound 0.08 µM) | relative viability (first compound 0.253 µM) | relative viability (first compound 2.53 µM) | relative viability (first compound 8 µM)
1 | NCI-H727 | 0.936 | 1.11 | 0.909 | 0.739
2 | NCI-H838 | 1.12 | 1.04 | 1.28 | 0.685
3 | NCI-H1355 | 1.08 | 0.971 | 0.937 | –
4 | NCI-H1395 | 1.08 | 0.931 | 1.04 | 0.854
5 | NCI-H1437 | 1.26 | 1.17 | 1.13 | 0.742
6 | NCI-H1563 | 0.992 | 0.929 | 0.943 | 0.577
7 | NCI-H1650 | 1.43 | 1.24 | 1.32 | 0.365
8 | NCI-H1651 | 0.923 | – | 0.787 | 0.515
9 | NCI-H1666 | 0.976 | 0.93 | – | 0.889
10 | NCI-H1703 | 0.384 | 0.283 | 0.298 | 0.278
11 | NCI-H1734 | 1.05 | 0.769 | 0.682 | 0.41
12 | NCI-H1755 | 0.926 | 0.863 | 0.921 | 0.729
13 | NCI-H1793 | 0.76 | 0.853 | 1.12 | 0.798
14 | NCI-H1915 | 1.08 | 0.969 | 1.03 | 1.09
15 | NCI-H1944 | 0.92 | 0.97 | 0.946 | 0.747
16 | NCI-H1975 | – | 0.958 | 0.994 | 0.649
17 | NCI-H1993 | 0.778 | 0.746 | 0.86 | 0.543
18 | NCI-H2009 | 1.27 | 1.18 | 1.09 | 0.916

Row | Cell Line | relative viability (first compound 0.08 µM) | relative viability (first compound 0.253 µM) | relative viability (first compound 2.53 µM) | relative viability (first compound 8 µM)
19 | NCI-H2023 | 1.18 | 0.795 | 0.972 | 0.591
20 | NCI-H2085 | 0.948 | 0.856 | 0.864 | 0.874
21 | NCI-H2087 | 1.36 | 0.977 | 0.819 | 0.632
22 | NCI-H2126 | 1.26 | 1.09 | 1.1 | 1.2
23 | NCI-H2170 | 1.02 | 0.994 | 0.986 | 0.967
24 | NCI-H2228 | 0.993 | 0.714 | 0.819 | 0.543
25 | NCI-H2342 | 1 | 1 | 0.914 | 0.568
26 | NCI-H2347 | 1.41 | 0.673 | 0.953 | 0.775
27 | NCI-H2405 | 1.14 | 1.04 | 1.07 | 0.92
28 | NCI-H3122 | 0.985 | 0.993 | 1.01 | 0.618
29 | PC-3 [JPC-3] | 1.07 | 1.05 | 0.985 | 0.882
30 | PC-14 | 1.02 | 0.945 | 1.11 | 0.913
31 | RERF-LC-KJ | 0.969 | 0.829 | 0.882 | 0.849
32 | SK-LU-1 | 0.857 | 0.632 | 0.761 | 0.692
33 | SK-MES-1 | 1.07 | 0.896 | 0.903 | 0.818
34 | SW 1573 | 1.09 | 0.791 | 0.995 | 0.777
35 | UMC-11 | 0.968 | 1.02 | 0.941 | 0.58
